Structures are written as SMILES. Converted amounts (≈) assume the structure as drawn.

Here are results for two molecules from ChEMBL document CHEMBL4342498, “Design and Discovery of an Orally Efficacious Spiroindolinone-Based Tankyrase Inhibitor for the Treatment of Colon Cancer” (J Med Chem, 2020).

Test system in the first data set: not listed separately
Briefly: Stability in rat liver microsomes assessed as parent compound remaining at 1 uM measured after 30 mins in presence of NADPH by LC-MS/MS analysis. The data set is classed as ADME, Microsome. The note with it: read-out: Stability.
For `CN1CCCc2c1nc(N1CCC3(CC1)CN(CCO)c1cc(F)cc(F)c13)[nH]c2=O`, the remaining at 0.5 h, 1 µM came to 0.4%.

The subject of another data set is MDR1. Briefly: Efflux ratio of permeability across basolateral to apical side over apical to basolateral side in MDCK2-MDR1 cells. The note with it: dog, MDCK-MDR1. The data set is classed as ADME, cell-based, Canis lupus familiaris.
As for `CN1CCCc2c1nc(N1CCC3(CC1)C(=O)N(CC#N)c1cc(F)cc(F)c13)[nH]c2=O`, the efflux ratio was determined as 11.7.

A further data set has as its target T1, Poly [ADP-ribose] polymerase tankyrase-1 (Homo sapiens, UniProt O95271).
T1 sequence (O95271 whole entry): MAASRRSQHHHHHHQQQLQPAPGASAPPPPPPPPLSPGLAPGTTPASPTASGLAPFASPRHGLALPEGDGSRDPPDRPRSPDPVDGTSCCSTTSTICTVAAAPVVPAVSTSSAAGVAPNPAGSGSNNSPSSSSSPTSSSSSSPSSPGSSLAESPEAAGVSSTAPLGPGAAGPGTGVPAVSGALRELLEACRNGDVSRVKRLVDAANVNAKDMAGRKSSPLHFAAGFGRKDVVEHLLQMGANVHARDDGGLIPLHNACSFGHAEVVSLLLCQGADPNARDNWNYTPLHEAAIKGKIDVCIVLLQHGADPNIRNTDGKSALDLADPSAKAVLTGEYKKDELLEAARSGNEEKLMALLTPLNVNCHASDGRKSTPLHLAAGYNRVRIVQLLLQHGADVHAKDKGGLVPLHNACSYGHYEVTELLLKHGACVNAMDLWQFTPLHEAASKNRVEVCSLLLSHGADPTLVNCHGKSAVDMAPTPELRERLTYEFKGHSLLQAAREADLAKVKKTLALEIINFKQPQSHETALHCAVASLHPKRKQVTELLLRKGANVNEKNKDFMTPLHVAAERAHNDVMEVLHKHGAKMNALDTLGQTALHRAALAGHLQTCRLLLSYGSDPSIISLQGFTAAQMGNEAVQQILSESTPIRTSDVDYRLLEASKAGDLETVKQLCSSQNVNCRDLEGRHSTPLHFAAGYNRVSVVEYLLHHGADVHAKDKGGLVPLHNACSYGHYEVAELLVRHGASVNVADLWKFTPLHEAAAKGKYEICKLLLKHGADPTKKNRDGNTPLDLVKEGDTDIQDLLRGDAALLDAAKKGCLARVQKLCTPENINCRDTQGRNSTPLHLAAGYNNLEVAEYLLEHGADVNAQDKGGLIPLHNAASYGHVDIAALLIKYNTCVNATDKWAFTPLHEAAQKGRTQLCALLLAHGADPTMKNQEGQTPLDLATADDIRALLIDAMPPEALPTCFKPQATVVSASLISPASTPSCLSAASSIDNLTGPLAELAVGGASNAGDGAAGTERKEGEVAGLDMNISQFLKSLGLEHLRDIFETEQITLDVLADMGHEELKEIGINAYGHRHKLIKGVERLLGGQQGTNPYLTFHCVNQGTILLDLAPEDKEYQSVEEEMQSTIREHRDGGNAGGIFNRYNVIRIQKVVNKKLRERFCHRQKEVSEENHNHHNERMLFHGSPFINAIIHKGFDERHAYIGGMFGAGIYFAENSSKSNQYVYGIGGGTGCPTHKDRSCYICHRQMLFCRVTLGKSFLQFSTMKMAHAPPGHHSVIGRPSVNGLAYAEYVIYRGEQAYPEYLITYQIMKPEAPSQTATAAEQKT
Experiment: not given
Conditions: not given
In turn, `CN1CCCc2c1nc(N1CCC3(CC1)C(=O)N(CC#N)c1cc(F)cc(F)c13)[nH]c2=O` returned a concentration for half-maximal inhibition (IC50) of 3.7 nM.
`CN1CCCc2c1nc(N1CCC3(CC1)CN(CCO)c1cc(F)cc(F)c13)[nH]c2=O` yielded an IC50 of 13.6 nM.

Test system in a further data set: not listed separately
Kind of data set: Stability in human liver microsomes assessed as parent compound remaining at 1 uM measured after 30 mins in presence of NADPH by LC-MS/MS analysis. The format is ADME, Microsome. The note with it: read-out: Stability.
On to `CN1CCCc2c1nc(N1CCC3(CC1)CN(CCO)c1cc(F)cc(F)c13)[nH]c2=O`, for which the remaining at 0.5 h, 1 µM was found to be 7.4%.

Test system in the next data set: not listed separately
Briefly: Net efflux ratio of permeability across basolateral to apical side over apical to basolateral side in MDCK2-MDR1 cells to MDCK2 cells. The data set is classed as ADME, cell-based, Canis lupus familiaris. To be noted: dog, mdck.
Take `CN1CCCc2c1nc(N1CCC3(CC1)C(=O)N(CC#N)c1cc(F)cc(F)c13)[nH]c2=O`: the Ratio stood at 5.1.

Test system in a further data set: not listed separately
Briefly: Protein binding in human plasma assessed as unbound fraction at 1 uM measured after 24 hrs by LC-MS/MS analysis. The format is ADME, cell-free.
Conditions: not given
As for `CN1CCCc2c1nc(N1CCC3(CC1)CN(CCO)c1cc(F)cc(F)c13)[nH]c2=O`, the free fraction (fraction unbound) at 24 h, 1 µM was 0.005.

Test system in another data set: not listed separately
Kind of data set: Permeability of the compound measured after 4 hrs by PAMPA. The data set is classed as ADME. The note with it: read-out: permeability.
In the case of `CN1CCCc2c1nc(N1CCC3(CC1)CN(CCO)c1cc(F)cc(F)c13)[nH]c2=O`, the Papp at 4 h came to 3.3 ×10⁻⁶ cm/s.

Another data set has as its target T2, Tankyrase 1/2 (Homo sapiens, UniProt Q9H2K2+O95271).
T2 sequence (Q9H2K2 whole entry): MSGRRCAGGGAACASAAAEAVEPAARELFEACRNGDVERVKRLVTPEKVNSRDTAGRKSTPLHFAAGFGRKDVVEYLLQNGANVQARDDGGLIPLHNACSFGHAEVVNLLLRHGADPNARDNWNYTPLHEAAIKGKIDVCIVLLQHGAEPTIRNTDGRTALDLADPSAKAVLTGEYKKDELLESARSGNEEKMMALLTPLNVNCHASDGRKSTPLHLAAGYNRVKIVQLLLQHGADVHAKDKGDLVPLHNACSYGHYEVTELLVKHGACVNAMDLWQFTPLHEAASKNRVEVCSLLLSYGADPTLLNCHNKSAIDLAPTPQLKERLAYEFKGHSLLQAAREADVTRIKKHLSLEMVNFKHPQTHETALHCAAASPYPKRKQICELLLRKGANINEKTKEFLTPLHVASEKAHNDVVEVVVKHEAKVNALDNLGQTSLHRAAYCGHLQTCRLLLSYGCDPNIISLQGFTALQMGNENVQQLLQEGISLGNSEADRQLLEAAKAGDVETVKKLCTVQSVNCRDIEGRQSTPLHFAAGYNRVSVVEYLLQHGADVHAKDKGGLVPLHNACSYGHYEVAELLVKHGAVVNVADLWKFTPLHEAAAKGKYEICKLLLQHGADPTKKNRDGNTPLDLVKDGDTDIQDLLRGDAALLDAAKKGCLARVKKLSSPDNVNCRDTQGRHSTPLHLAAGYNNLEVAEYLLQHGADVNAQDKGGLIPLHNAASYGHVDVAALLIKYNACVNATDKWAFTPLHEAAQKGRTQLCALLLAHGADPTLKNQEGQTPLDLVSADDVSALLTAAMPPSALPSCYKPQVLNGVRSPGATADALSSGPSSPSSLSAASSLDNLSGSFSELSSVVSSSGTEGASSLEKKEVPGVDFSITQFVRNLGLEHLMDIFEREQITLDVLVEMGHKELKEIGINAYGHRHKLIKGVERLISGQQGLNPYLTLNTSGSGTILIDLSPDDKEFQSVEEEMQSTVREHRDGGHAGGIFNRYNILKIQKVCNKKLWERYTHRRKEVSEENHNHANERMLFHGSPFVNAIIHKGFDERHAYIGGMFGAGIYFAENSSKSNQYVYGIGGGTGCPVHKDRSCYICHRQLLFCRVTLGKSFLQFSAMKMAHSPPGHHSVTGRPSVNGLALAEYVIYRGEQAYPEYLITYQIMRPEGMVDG
T2 sequence (O95271 whole entry): T1 sequence (O95271 whole entry)
Experiment: not given
Conditions: not given
For `CN1CCCc2c1nc(N1CCC3(CC1)C(=O)N(CC#N)c1cc(F)cc(F)c13)[nH]c2=O`, the IC50 is listed as 1.6 nM.
Molecule `CN1CCCc2c1nc(N1CCC3(CC1)CN(CCO)c1cc(F)cc(F)c13)[nH]c2=O` gave a half-inhibitory concentration (IC50) of 7 nM.

Test system in another data set: not listed separately
Kind of data set: Stability in mouse liver microsomes assessed as parent compound remaining at 1 uM measured after 30 mins in presence of NADPH by LC-MS/MS analysis. The data set is classed as ADME, Microsome. To be noted: read-out: Stability.
On to `CN1CCCc2c1nc(N1CCC3(CC1)CN(CCO)c1cc(F)cc(F)c13)[nH]c2=O`, for which the remaining at 0.5 h, 1 µM was found to be 0.3%.

In a further data set the target is T2, Tankyrase 1/2.
Experiment: not given
The note with it: hek293.
`CN1CCCc2c1nc(N1CCC3(CC1)C(=O)N(CC#N)c1cc(F)cc(F)c13)[nH]c2=O` returned an IC50 of 0.2 nM.
Regarding `CN1CCCc2c1nc(N1CCC3(CC1)CN(CCO)c1cc(F)cc(F)c13)[nH]c2=O`, the concentration for half-maximal inhibition (IC50) was found to be 2.7 nM.

For another data set, the target named is T3, Poly [ADP-ribose] polymerase tankyrase-2 (Homo sapiens, UniProt Q9H2K2).
T3 sequence (Q9H2K2 whole entry): T2 sequence (Q9H2K2 whole entry)
Kind of data set: Inhibition of recombinant human N-terminal TEV cleavage site-fused/FLAG-poly his-tagged TNKS2 ARC5-SAM-PARP domain (613 to 1166 residues) expressed in Escherichia coli assessed as reduction in auto-PARylation preincubated for 10 mins followed by biotinylated-NAD+ addition and measured after 45 mins by ELISA.
Conditions: not given
On to `CN1CCCc2c1nc(N1CCC3(CC1)C(=O)N(CC#N)c1cc(F)cc(F)c13)[nH]c2=O`, for which the IC50 was determined as 6.1 nM.
Take `CN1CCCc2c1nc(N1CCC3(CC1)CN(CCO)c1cc(F)cc(F)c13)[nH]c2=O`: the 50% inhibitory concentration (IC50) came out at 21.4 nM.

Test system in a further data set: not listed separately
Kind of data set: Stability in mouse liver microsomes assessed as parent compound remaining at 1 uM measured after 60 mins in presence of NADPH by LC-MS/MS analysis. The data set is classed as ADME, Microsome. To be noted: read-out: Stability.
With `CN1CCCc2c1nc(N1CCC3(CC1)C(=O)N(CC#N)c1cc(F)cc(F)c13)[nH]c2=O`, the remaining at 1 h, 1 µM is 1.2%.
Regarding `CN1CCCc2c1nc(N1CCC3(CC1)CN(CCO)c1cc(F)cc(F)c13)[nH]c2=O`, the remaining at 1 h, 1 µM stood at 0.2%.

Test system in a further data set: not listed separately
Briefly: Stability in human liver microsomes assessed as parent compound remaining at 1 uM measured after 60 mins in presence of NADPH by LC-MS/MS analysis. The format is ADME, Microsome. The note with it: read-out: Stability.
For `CN1CCCc2c1nc(N1CCC3(CC1)C(=O)N(CC#N)c1cc(F)cc(F)c13)[nH]c2=O`, the remaining at 1 h, 1 µM amounted to 6.1%.
As to `CN1CCCc2c1nc(N1CCC3(CC1)CN(CCO)c1cc(F)cc(F)c13)[nH]c2=O`, the remaining at 1 h, 1 µM was found to be 1.4%.

Test system in the next data set: not listed separately
Kind of data set: physchem. The note with it: phosphate buffered saline, pH 7.4.
`CN1CCCc2c1nc(N1CCC3(CC1)C(=O)N(CC#N)c1cc(F)cc(F)c13)[nH]c2=O`: the solubility at 1 h, 200 µM turned out to be 50.5 µg/mL (≈ 115 µM).
`CN1CCCc2c1nc(N1CCC3(CC1)CN(CCO)c1cc(F)cc(F)c13)[nH]c2=O`: the solubility at 1 h, 200 µM amounted to 40.2 µg/mL (≈ 93.2 µM).

Test system in a further data set: not listed separately
Briefly: Stability in rat liver microsomes assessed as parent compound remaining at 1 uM measured after 60 mins in presence of NADPH by LC-MS/MS analysis. The data set is classed as ADME, Microsome. To be noted: read-out: Stability.
For the molecule `CN1CCCc2c1nc(N1CCC3(CC1)CN(CCO)c1cc(F)cc(F)c13)[nH]c2=O`, the remaining at 1 h, 1 µM stood at 0.2%.

Test system in a further data set: not listed separately
Briefly: Protein binding in mouse plasma assessed as unbound fraction at 1 uM measured after 24 hrs by LC-MS/MS analysis. The format is ADME, cell-free.
Conditions: not given
In the case of `CN1CCCc2c1nc(N1CCC3(CC1)CN(CCO)c1cc(F)cc(F)c13)[nH]c2=O`, the fraction unbound at 24 h, 1 µM came out at 0.002.

For a further data set, the system named is COLO 320DM. Kind of data set: Antiproliferative activity against human COLO320DM cells assessed as inhibition of cell growth measured after 4 days by CellTiter-Glo assay. The data set is classed as functional. To be noted: 96 h.
As to `CN1CCCc2c1nc(N1CCC3(CC1)C(=O)N(CC#N)c1cc(F)cc(F)c13)[nH]c2=O`, the GI50 turned out to be 440 nM.
On the same count and under the same terms, the value for `CN1CCCc2c1nc(N1CCC3(CC1)CN(CCO)c1cc(F)cc(F)c13)[nH]c2=O` was 250 nM.

Test system in a further data set: not listed separately
Briefly: Efflux ratio of permeability across basolateral to apical side over apical to basolateral side in MDCK2 cells. The data set is classed as ADME, cell-based, Canis lupus familiaris, MDCK-II. To be noted: dog, mdck.
As to `CN1CCCc2c1nc(N1CCC3(CC1)C(=O)N(CC#N)c1cc(F)cc(F)c13)[nH]c2=O`, the efflux ratio was found to be 2.3.
